Measurements as given in paper PMC8272561 (Bioorganic & medicinal chemistry letters, 2021).
Where two headings read alike, the source gives them in different places.

Columns and labels:
WEEV genome replicon [1] = assay: organism not typed; type: cell-based; details: for IC50: read-out: IC50, inhibition of luciferase expression in WEEV replicon assay
[2] = tested on: FMV-infected BE(2)-C cells; assay: Antiviral assay in FMV-infected BE; type: cell-based
WEEV genome replicon [3] = details: read-out: IC50, inhibition of luciferase expression in WEEV replicon assay; cited from earlier work

CC1(C(=O)NCCc2ccncc2)CCN(C(=O)c2cc3ccccc3n2Cc2ccc(Cl)cc2)CC1 [compound 23]
Activity in WEEV replicon assay, in words (WEEV genome replicon [1]): lost all activity

O=C(c1cc2ccccc2n1Cc1ccc(Cl)cc1)N1CCC(/C=C\CCc2ccncc2)CC1 [compound 18]
Activity in WEEV replicon assay, in words (WEEV genome replicon [1]): lost all activity | IC50 (WEEV genome replicon [1]): > 50 µM

O=C(NCCc1ccncc1)C1CC2(C1)CN(C(=O)c1cc3ccccc3n1Cc1ccc(Cl)cc1)C2 [compound 28]
Loss of potency relative to lead 2 in WEEV replicon assay (WEEV genome replicon [1]): over 20 fold

O=C(c1cc2ccccc2n1Cc1ccc(Cl)cc1)N1CCC(/C=C/CCc2ccncc2)CC1 [compound 17]
Activity in WEEV replicon assay, in words (WEEV genome replicon [1]): lost all activity | IC50 (WEEV genome replicon [1]): > 50 µM

O=C(NCCc1ccncc1)[C@H]1[C@@H]2CCN(C(=O)c3cc4ccccc4n3Cc3ccc(Cl)cc3)C[C@@H]21 [compound 26]
Loss of potency relative to lead 2 in WEEV replicon assay (WEEV genome replicon [1]): over 20 fold

O=C(NCCc1ccncc1)C1CCN(C(=O)c2cc3ccccc3n2Cc2ccc(Cl)cc2)CC1 [compound 2]
Enhancement of infected cell viability ([2]; 25 μM): two-fold enhancement | IC50 (WEEV genome replicon [3]): 0.53 ± 0.08 µM

O=C(NCCc1ccncc1)C1=CCN(C(=O)c2cc3ccccc3n2Cc2ccc(Cl)cc2)CC1 [compound 22]
Loss of potency relative to lead 2 in WEEV replicon assay (WEEV genome replicon [1]): ~10 fold

O=C(NCCc1ccncc1)C1CCCN(C(=O)c2cc3ccccc3n2Cc2ccc(Cl)cc2)CC1 (centres unmarked) [compound 29]
Improvement in infected cell viability versus negative control ([2]; 5 μM): nearly two-fold improvement
